# Laboratory results from PubChem BioAssay (NCI).
#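 Five concentrations, 48 hours, 96-well plates. At the GI50, growth is halved. At the TGI there is no net growth.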
# Columns and labels:
# Assay in all cases: NCI tumour cell line growth inhibition, 48 h
# NCI/ADR-RES ovarian = system: NCI/ADR-RES ovarian
# SW-620 colon = system: SW-620 colon
# TK-10 renal = system: TK-10 renal
# SK-MEL-2 melanoma = system: SK-MEL-2 melanoma
# MDA-MB-231 breast = system: MDA-MB-231 breast
# HCT-116 colon = system: HCT-116 colon
# MOLT-4 leukemia = system: MOLT-4 leukemia
# OVCAR-8 ovarian = system: OVCAR-8 ovarian
# U251 CNS = system: U251 CNS
# HOP-92 NSCLC = system: HOP-92 NSCLC
# SR leukemia = system: SR leukemia
# BT-549 breast = system: BT-549 breast
# UO-31 renal = system: UO-31 renal
# OVCAR-4 ovarian = system: OVCAR-4 ovarian
# DU-145 prostate = system: DU-145 prostate
# LOX IMVI melanoma = system: LOX IMVI melanoma
# A549 NSCLC = system: A549 NSCLC
# UACC-62 melanoma = system: UACC-62 melanoma
# A498 renal = system: A498 renal
# SNB-19 CNS = system: SNB-19 CNS
# KM12 colon = system: KM12 colon
# CAKI-1 renal = system: CAKI-1 renal
# SF-295 CNS = system: SF-295 CNS
# OVCAR-5 ovarian = system: OVCAR-5 ovarian
# NCI-H226 lung = system: NCI-H226 lung
# SNB-75 CNS = system: SNB-75 CNS
# SF-268 CNS = system: SF-268 CNS
# NCI-H23 lung = system: NCI-H23 lung
# SN12C renal = system: SN12C renal
# SF-539 CNS = system: SF-539 CNS
# 786-0 renal = system: 786-0 renal
# EKVX NSCLC = system: EKVX NSCLC
# OVCAR-3 ovarian = system: OVCAR-3 ovarian
# IGROV1 ovarian = system: IGROV1 ovarian
# SK-MEL-28 melanoma = system: SK-MEL-28 melanoma
# NCI-H460 lung = system: NCI-H460 lung
# HT29 colon = system: HT29 colon
# PC-3 prostate = system: PC-3 prostate
# ACHN renal = system: ACHN renal
# RPMI-8226 leukemia = system: RPMI-8226 leukemia
# HOP-62 NSCLC = system: HOP-62 NSCLC
# SK-OV-3 ovarian = system: SK-OV-3 ovarian
# HS 578T breast = system: HS 578T breast
# K-562 leukemia = system: K-562 leukemia
# HCC-2998 colon = system: HCC-2998 colon
# CCRF-CEM leukemia = system: CCRF-CEM leukemia
# T-47D breast = system: T-47D breast
compound,measurement,setting,value
Cc1cc2[nH]c(=O)c3c4ncccc4cn3c2cc1C,GI50,NCI/ADR-RES ovarian,2.93 µM
same,TGI,NCI/ADR-RES ovarian,> 100 µM
same,GI50,SW-620 colon,2.89 µM
same,TGI,SW-620 colon,> 100 µM
same,GI50,TK-10 renal,4.36 µM
same,TGI,TK-10 renal,61.8 µM
same,GI50,SK-MEL-2 melanoma,5.69 µM
same,TGI,SK-MEL-2 melanoma,40.3 µM
same,GI50,MDA-MB-231 breast,4.64 µM
same,TGI,MDA-MB-231 breast,> 100 µM
same,GI50,HCT-116 colon,1.92 µM
same,TGI,HCT-116 colon,4.53 µM
same,GI50,MOLT-4 leukemia,3.54 µM
same,TGI,MOLT-4 leukemia,> 100 µM
same,GI50,OVCAR-8 ovarian,2.89 µM
same,TGI,OVCAR-8 ovarian,> 100 µM
same,GI50,U251 CNS,2.67 µM
same,TGI,U251 CNS,9.18 µM
same,GI50,HOP-92 NSCLC,2.94 µM
same,TGI,HOP-92 NSCLC,16.3 µM
same,GI50,SR leukemia,2.17 µM
same,TGI,SR leukemia,6.16 µM
same,GI50,BT-549 breast,14.5 µM
same,TGI,BT-549 breast,41.4 µM
same,GI50,UO-31 renal,1.68 µM
same,TGI,UO-31 renal,4.58 µM
same,GI50,OVCAR-4 ovarian,4.17 µM
same,TGI,OVCAR-4 ovarian,> 100 µM
same,GI50,DU-145 prostate,4.13 µM
same,TGI,DU-145 prostate,> 100 µM
same,GI50,LOX IMVI melanoma,1.72 µM
same,TGI,LOX IMVI melanoma,3.34 µM
same,GI50,A549 NSCLC,4.82 µM
same,TGI,A549 NSCLC,> 100 µM
same,GI50,UACC-62 melanoma,2.06 µM
same,TGI,UACC-62 melanoma,4.33 µM
same,GI50,A498 renal,9.38 µM
same,TGI,A498 renal,84.5 µM
same,GI50,SNB-19 CNS,5.48 µM
same,TGI,SNB-19 CNS,> 100 µM
same,GI50,KM12 colon,3.17 µM
same,TGI,KM12 colon,> 100 µM
same,GI50,CAKI-1 renal,3.21 µM
same,TGI,CAKI-1 renal,> 100 µM
same,GI50,SF-295 CNS,1.85 µM
same,TGI,SF-295 CNS,3.84 µM
same,GI50,OVCAR-5 ovarian,> 100 µM
same,TGI,OVCAR-5 ovarian,> 100 µM
same,GI50,NCI-H226 lung,6.04 µM
same,TGI,NCI-H226 lung,> 100 µM
same,GI50,SNB-75 CNS,3.3 µM
same,TGI,SNB-75 CNS,15.7 µM
same,GI50,SF-268 CNS,3.44 µM
same,TGI,SF-268 CNS,> 100 µM
same,GI50,NCI-H23 lung,8.86 µM
same,TGI,NCI-H23 lung,> 100 µM
same,GI50,SN12C renal,3.45 µM
same,TGI,SN12C renal,> 100 µM
same,GI50,SF-539 CNS,1.93 µM
same,TGI,SF-539 CNS,3.98 µM
same,GI50,786-0 renal,3.06 µM
same,TGI,786-0 renal,8.42 µM
same,GI50,EKVX NSCLC,> 100 µM
same,TGI,EKVX NSCLC,> 100 µM
same,GI50,OVCAR-3 ovarian,2.02 µM
same,TGI,OVCAR-3 ovarian,4.33 µM
same,GI50,IGROV1 ovarian,2.75 µM
same,TGI,IGROV1 ovarian,> 100 µM
same,GI50,SK-MEL-28 melanoma,4.7 µM
same,TGI,SK-MEL-28 melanoma,> 100 µM
same,GI50,NCI-H460 lung,2.17 µM
same,TGI,NCI-H460 lung,6.2 µM
same,GI50,HT29 colon,2.98 µM
same,TGI,HT29 colon,> 100 µM
same,GI50,PC-3 prostate,5.83 µM
same,TGI,PC-3 prostate,> 100 µM
same,GI50,ACHN renal,2.44 µM
same,TGI,ACHN renal,> 100 µM
same,GI50,RPMI-8226 leukemia,2.66 µM
same,TGI,RPMI-8226 leukemia,7.61 µM
same,GI50,HOP-62 NSCLC,3.81 µM
same,TGI,HOP-62 NSCLC,39.4 µM
same,GI50,SK-OV-3 ovarian,6.62 µM
same,TGI,SK-OV-3 ovarian,73.7 µM
same,GI50,HS 578T breast,5.93 µM
same,TGI,HS 578T breast,52.2 µM
same,GI50,K-562 leukemia,2.54 µM
same,TGI,K-562 leukemia,> 100 µM
same,GI50,HCC-2998 colon,2.59 µM
same,TGI,HCC-2998 colon,7.97 µM
same,GI50,CCRF-CEM leukemia,2.95 µM
same,TGI,CCRF-CEM leukemia,> 100 µM
same,GI50,T-47D breast,2.37 µM
same,TGI,T-47D breast,> 100 µM
